# From patent US20250340538A1, “IMIDAZOLONE DERIVATIVES AS INHIBITORS OF PROTEIN KINASES IN PARTICULAR DYRK1A, CLK1 AND/OR CLK4” (PERHA PHARMACEUTICALS, priority 2021, published 2025)
# Where two headings read alike, the source gives them in different places.
# Experiments:
# Type in all cases: biochemical
# [1] = biological target: T1, CLK2 (Homo sapiens, UniProt P49760); assay: Radiometric protein kinase assay (33PanQinase Activity Assay), CLK2; conditions: read-out: IC50 on CLK2 (most potent CLK2 inhibitors)
# T1 construct: GST-fusion or His-tag (not specified per kinase); purchased ProQinase GmbH; host or cells: Sf9 insect cells or E. coli (not specified per kinase)
# T1 sequence (P49760 whole entry, the tested form may be a part): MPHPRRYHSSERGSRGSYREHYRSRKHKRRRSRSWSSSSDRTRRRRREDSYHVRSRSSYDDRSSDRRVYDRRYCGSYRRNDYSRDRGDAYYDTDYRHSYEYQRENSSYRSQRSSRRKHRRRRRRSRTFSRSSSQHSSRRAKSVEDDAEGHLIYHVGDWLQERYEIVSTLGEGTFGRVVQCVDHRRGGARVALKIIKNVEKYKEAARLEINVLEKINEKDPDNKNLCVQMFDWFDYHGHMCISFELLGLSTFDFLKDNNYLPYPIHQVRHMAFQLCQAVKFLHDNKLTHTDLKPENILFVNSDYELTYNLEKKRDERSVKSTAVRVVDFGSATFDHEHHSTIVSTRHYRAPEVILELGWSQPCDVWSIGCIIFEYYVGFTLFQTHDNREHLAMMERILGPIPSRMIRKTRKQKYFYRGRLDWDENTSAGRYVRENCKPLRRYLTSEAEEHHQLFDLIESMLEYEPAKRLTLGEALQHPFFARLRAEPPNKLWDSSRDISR
# Method: (§1) Assays were performed by ProQinase GmbH (Engesserstr. 4, D-79108 Freiburg, Germany. www.proqinase.com). The IC50 profile of all compounds was determined using 12 protein kinases (CDK2/cyclin E, CK1ε, CLK1, 2, 3, 4, DYRK1A, 1B, 2, 3, 4, GSK3β).
# (§2) The compounds were provided as […] in 100% DMSO. Prior to testing, the 1 μM stock solutions were subjected to a serial, semi-logarithmic dilution using 100% DMSO as a solvent. […] In the process, 90 μl H2O were added to each well of each compound dilution plate. To minimize potential precipitation, the H2O was added to each plate only a few minutes before the transfer of the compound solutions into the assay plates. The plate was shaken thoroughly, resulting in a compound dilution plate/10% DMSO.
# (§3) For the assays (see below), 5 μL solution from each well of the compound dilution plates/10% DMSO were transferred into the assay plates. The final volume of the assay was 50 μL. All compounds were tested at 10 final assay concentrations in the range from 10 μM to 30 nM. The final DMSO concentration in the reaction cocktails was 1% in all cases.
# (§4) All protein kinases provided by ProQinase were expressed in Sf9 insect cells or in E. coli as recombinant GST-fusion proteins or His-tagged proteins, either as full-length or enzymatically active fragments. All kinases were produced from human cDNAs and purified by either GSH-affinity chromatography or immobilized metal. Affinity tags were removed from a number of kinases during purification. The purity of the protein kinases was examined by SDS-PAGE/Coomassie staining, the identity was checked by mass spectroscopy.
# (§5) A radiometric protein kinase assay (33PanQinase® Activity Assay) was used for measuring the kinase activity of the 12 protein kinases. All kinase assays were performed in 96-well FlashPlates™ from PerkinElmer (Boston, MA, USA) in a 50 μL reaction volume. The reaction cocktail was pipetted in four steps in the following order: • 25 μL of assay buffer (standard buffer/[γ-^33P]-ATP), • 10 μL of ATP solution (in H2O), • 5 μL of test compound (in 10% DMSO), • 10 μL of enzyme/substrate mixture.
# (§6) The reaction cocktails were incubated at 30° C. for 60 minutes. The reaction was stopped with 50 μL of 2% (v/v) H3PO4, plates were aspirated and washed two times with 200 μL 0.9% (w/v) NaCl. Incorporation of ^33Pi was determined with a microplate scintillation counter (Microbeta, Wallac). The IC50 values for all compounds were calculated from the dose response curves
# (§7) As a parameter for assay quality, the Z′-factor (Zhang et al., J. Biomol. Screen. 2: 67-73, 1999) for the low and high controls of each assay plate (n=8) was used. ProQinase's criterion for repetition of an assay plate is a Z′-factor below 0.4 (Iversen et al., J. Biomol. Screen. 3: 247-252, 2006).
# [2] = biological target: T2, DYRK1A (Homo sapiens, UniProt Q13627); assay: Radiometric protein kinase assay (33PanQinase Activity Assay), DYRK1A; conditions: for IC50: read-out: Potency Class DYRK1A; for Selectivity Class DYRK1A vs. CLK1: ratio of IC50 on CLK1 over IC50 on DYRK1A; for Selectivity Class DYRK1A vs. DYRK1B: ratio of IC50 on DYRK1B over IC50 on DYRK1A
# T2 construct: GST-fusion or His-tag (not specified per kinase); purchased ProQinase GmbH; host or cells: Sf9 insect cells or E. coli (not specified per kinase)
# How it was run: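 Recombinant human kinase, expressed in Sf9 or E. coli, in a radiometric [γ-33P]-ATP assay at 30 °C for 60 min. Compounds tested at 10 concentrations from 10 μM to 30 nM, 1% DMSO final. 33Pi incorporation measured by scintillation counting; IC50 from dose-response curves.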
# [3] = biological target: T3, CLK1 (Homo sapiens, UniProt P49759); assay: Radiometric protein kinase assay (33PanQinase Activity Assay), CLK1; conditions: read-out: Potency Class CLK1
# T3 construct: GST-fusion or His-tag (not specified per kinase); purchased ProQinase GmbH; host or cells: Sf9 insect cells or E. coli (not specified per kinase)
# T3 sequence (P49759 whole entry, the tested form may be a part): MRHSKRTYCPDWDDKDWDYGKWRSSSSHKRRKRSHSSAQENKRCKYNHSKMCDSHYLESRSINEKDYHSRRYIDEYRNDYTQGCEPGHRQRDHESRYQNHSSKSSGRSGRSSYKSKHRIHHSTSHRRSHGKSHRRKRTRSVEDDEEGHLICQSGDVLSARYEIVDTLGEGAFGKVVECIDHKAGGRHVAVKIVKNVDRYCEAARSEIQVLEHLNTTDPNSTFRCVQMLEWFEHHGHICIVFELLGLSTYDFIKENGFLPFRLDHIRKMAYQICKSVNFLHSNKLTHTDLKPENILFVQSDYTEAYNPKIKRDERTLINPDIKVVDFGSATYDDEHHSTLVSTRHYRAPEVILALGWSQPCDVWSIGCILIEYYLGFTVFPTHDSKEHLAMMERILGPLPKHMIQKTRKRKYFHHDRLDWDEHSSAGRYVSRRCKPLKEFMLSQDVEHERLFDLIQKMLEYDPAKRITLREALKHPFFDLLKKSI
# How it was run: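 Semi-log compound dilutions, ten final concentrations between 10 μM and 30 nM, went into reactions containing [γ-33P]-ATP and recombinant human enzyme with substrate. After 60 minutes at 30 °C the reaction was stopped with phosphoric acid, and radiolabel incorporation gave IC50 values.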
# [4] = biological target: T4, CLK4 (Homo sapiens, UniProt Q9HAZ1); assay: Radiometric protein kinase assay (33PanQinase Activity Assay), CLK4; conditions: read-out: IC50 on CLK4 (most potent CLK4 inhibitors)
# T4 construct: GST-fusion or His-tag (not specified per kinase); purchased ProQinase GmbH; host or cells: Sf9 insect cells or E. coli (not specified per kinase)
# T4 sequence (Q9HAZ1 whole entry, the tested form may be a part): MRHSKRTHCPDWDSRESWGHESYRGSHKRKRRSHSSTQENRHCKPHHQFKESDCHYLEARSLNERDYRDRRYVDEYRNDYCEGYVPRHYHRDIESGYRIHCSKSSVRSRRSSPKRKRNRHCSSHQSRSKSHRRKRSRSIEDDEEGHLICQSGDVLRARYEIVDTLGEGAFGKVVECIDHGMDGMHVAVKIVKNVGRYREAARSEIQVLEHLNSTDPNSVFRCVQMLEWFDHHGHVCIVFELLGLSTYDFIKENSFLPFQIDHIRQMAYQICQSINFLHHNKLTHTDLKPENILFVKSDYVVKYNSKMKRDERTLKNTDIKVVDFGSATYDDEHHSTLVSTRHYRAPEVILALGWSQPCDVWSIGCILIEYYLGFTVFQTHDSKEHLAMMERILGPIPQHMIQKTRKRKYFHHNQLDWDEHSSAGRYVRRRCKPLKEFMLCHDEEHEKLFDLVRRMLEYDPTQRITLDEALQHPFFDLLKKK
# Method: as §1, §2, §3, §4, §5, §6, §7
# [5] = class by IC50 on DYRK1A, from dose-response curves
# [6] = class by IC50 on CLK1, from dose-response curves
IC50 [1] [µM],"IC50 [2, 5] [µM]",Selectivity Class DYRK1A vs. CLK1 [2],Selectivity Class DYRK1A vs. DYRK1B [2],"IC50 [3, 6] [µM]",IC50 [4] [µM],IC50 ([2]; IC50 class A to E) [µM],IC50 ([3]; IC50 class A to E) [µM],SMILES
≤ 0.1,0.01 to 0.025,II (ratio between 2 and 10 fold),II (ratio between 2 and 10 fold),0.025 to 0.05,–,–,–,"O=C1NC(NC23CC4CC(CC(C4)C2)C3)=N/C1=C\c1ccc2nccnc2c1 [Compound 17, (4Z)-2-(1-adamantylamino)-4-(quinoxalin-6-ylmethylene)-1H-imidazol-5-one]"
–,> 0.05,III (ratio between 0.5 and 2 fold),III (ratio between 0.5 and 2 fold),> 0.05,–,–,–,"O=C1NC(N[C@@H]2CCCOC2)=N/C1=C\c1ccc2cnccc2c1 [Compound 67, (4Z)-4-(6-isoquinolylmethylene)-2-[[(3R)-tetrahydropyran-3-yl]amino]-1H-imidazol-5-one]"
–,> 0.05,III (ratio between 0.5 and 2 fold),II (ratio between 2 and 10 fold),> 0.05,–,–,–,"O=C1NC(NC23CC4CC(CC(C4)C2)C3)=N/C1=C\c1ccc2ncncc2c1 [Compound 68, (4Z)-2-(1-adamantylamino)-4-(quinazolin-6-ylmethylene)-1H-imidazol-5-one]"
–,> 0.05,IV (ratio between 0.1 and 0.5 fold),II (ratio between 2 and 10 fold),0.01 to 0.025,≤ 0.01,> 0.05,0.01 to 0.025,"COC[C@H](NC1=N/C(=C\c2ccc3ncccc3n2)C(=O)N1)c1ccccc1 [Compound 71, (4Z)-2-[[(1R)-2-methoxy-1-phenyl-ethyl]amino]-4-(1,5-naphthyridin-2-ylmethylene)-1H-imidazol-5-one]"
–,> 0.05,III (ratio between 0.5 and 2 fold),III (ratio between 0.5 and 2 fold),> 0.05,–,–,–,"COC[C@H](NC1=N/C(=C\c2ccc3nnccc3c2)C(=O)N1)c1ccccc1 [Compound 72, (4Z)-4-(cinnolin-6-ylmethylene)-2-[[(1R)-2-methoxy-1-phenyl-ethyl]amino]-1H-imidazol-5-one]"
–,> 0.05,III (ratio between 0.5 and 2 fold),III (ratio between 0.5 and 2 fold),> 0.05,–,–,–,"COC[C@H](NC1=N/C(=C\c2ccc3cnncc3c2)C(=O)N1)c1ccccc1 [Compound 73, (4Z)-2-[[(1R)-2-methoxy-1-phenyl-ethyl]amino]-4-(phthalazin-6-ylmethylene)-1H-imidazol-5-one]"
–,> 0.05,III (ratio between 0.5 and 2 fold),II (ratio between 2 and 10 fold),> 0.05,–,–,–,"O=C1NC(NC2CCCCC2)=N/C1=C\c1ccc2cnccc2c1 [Compound 75, (4Z)-2-(Cyclohexylamino)-4-(6-isoquinolylmethylene)-1H-imidazol-5-one]"
–,> 0.05,III (ratio between 0.5 and 2 fold),II (ratio between 2 and 10 fold),> 0.05,–,–,–,"O=C1NC(NC2CCCCC2)=N/C1=C\c1ccc2ncncc2c1 [Compound 76, (4Z)-2-(cyclohexylamino)-4-(quinazolin-6-ylmethylene)-1H-imidazol-5-one]"
–,> 0.05,II (ratio between 2 and 10 fold),II (ratio between 2 and 10 fold),> 0.05,–,–,–,"O=C1NC(NC2CCCCCC2)=N/C1=C\c1ccc2ncncc2c1 [Compound 77, (4Z)-2-(cycloheptylamino)-4-(quinazolin-6-ylmethylene)-1H-imidazol-5-one]"
–,> 0.05,II (ratio between 2 and 10 fold),II (ratio between 2 and 10 fold),> 0.05,–,–,–,"COC[C@@H](CC(C)C)NC1=N/C(=C\c2ccc3ncncc3c2)C(=O)N1 [Compound 78, (4Z)-2-[[(1R)-1-(methoxymethyl)-3-methyl-butyl]amino]-4-(quinazolin-6-ylmethylene)-1H-imidazol-5-one]"
–,> 0.05,III (ratio between 0.5 and 2 fold),III (ratio between 0.5 and 2 fold),> 0.05,–,–,–,"CN1C(=O)/C(=C/c2ccc3nccnc3c2)N=C1NC1CCCCC1 [Compound 82, (5Z)-2-(Cyclohexylamino)-3-methyl-5-(quinoxalin-6-ylmethylene)imidazol-4-one]"
–,> 0.05,III (ratio between 0.5 and 2 fold),III (ratio between 0.5 and 2 fold),> 0.05,–,–,–,"CN1C(=O)/C(=C/c2ccc3nccnc3c2)N=C1NC1CCCCCC1 [Compound 83, (5Z)-2-(Cycloheptylamino)-3-methyl-5-(quinoxalin-6-ylmethylene)imidazol-4-one]"
–,> 0.05,III (ratio between 0.5 and 2 fold),III (ratio between 0.5 and 2 fold),> 0.05,–,–,–,"CN1C(=O)/C(=C/c2ccc3ncccc3c2)N=C1NC1CCCCC1 [Compound 84, (5Z)-2-(Cyclohexylamino)-3-methyl-5-(quinolin-6-ylmethylene)imidazol-4-one]"
–,> 0.05,IV (ratio between 0.1 and 0.5 fold),III (ratio between 0.5 and 2 fold),> 0.05,–,–,–,"CN1C(=O)/C(=C/c2ccc3ncccc3c2)N=C1NC1CCCCCC1 [Compound 85, (5Z)-2-(Cycloheptylamino)-3-methyl-5-(quinolin-6-ylmethylene)imidazol-4-one]"
–,> 0.05,III (ratio between 0.5 and 2 fold),IV (ratio between 0.1 and 0.5 fold),> 0.05,–,–,–,"CN1C(=O)/C(=C/c2ccc3cnccc3c2)N=C1NC1CCCCC1 [Compound 86, (5Z)-2-(Cyclohexylamino)-3-methyl-5-(isoquinolin-6-ylmethylene)imidazol-4-one]"
–,> 0.05,III (ratio between 0.5 and 2 fold),III (ratio between 0.5 and 2 fold),> 0.05,–,–,–,"CN1C(=O)/C(=C/c2ccc3ncncc3c2)N=C1NC1CCCCC1 [Compound 88, (5Z)-2-(Cyclohexylamino)-3-methyl-5-(quinazolin-6-ylmethylene)imidazol-4-one]"
–,> 0.05,III (ratio between 0.5 and 2 fold),III (ratio between 0.5 and 2 fold),> 0.05,–,–,–,"CN1C(=O)/C(=C/c2ccc3ncncc3c2)N=C1NC1CCCCCC1 [Compound 89, (5Z)-2-(Cycloheptylamino)-3-methyl-5-(quinazolin-6-ylmethylene)imidazol-4-one]"
